The record followed here is US20250026788A1, “PEPTIDES FOR THE TREATMENT OF CHRONICALLY ACTIVE AUTOIMMUNE INFLAMMATION” (advanceCOR GmbH, priority 2021, published 2025).

For data set [1], the system named is FIA-CIA (bCII- and hFib-immunized mice which develop RA-like arthritis). The settings on record: for overview of the paws: soft tissue enhancement and lymphocyte infiltration (HE sections): right hind paws; for arthritis score: score 0-16 per mouse.
The test system of data set [2] is anti-bCII or anti-hFib antibody titers. The data set is described as follows: Measurement of mouse antibodies by ELISA in sera of treated FIA-CIA mice. Format: in vivo. The settings on record: sera taken on days 35 and 84, 1 mg/kg i.v. on days 14, 35 and 56. As to the method:
Serum was collected on days 0, 14, 35 and 56 of the experiment via bleeding of the tail vein. Treatment with peptides 90091, 90578 (at a concentration of 1 mg/kg body weight) or 0.9% NaCl was applied intravenously on day 14, 35 and 56. Mice were randomly distributed to the three treatment groups. Treatment compounds were numbered 1, 2 and 3. To minimize confounders, each of the three mice per cage received a different treatment. All clinical and histological investigators were blinded to the treatment until data analysis was finished. For comparability between the therapy groups, all mice, including the CFA control mice, received a daily dose of 1 mg/kg Metacam® (meloxicam) from day 14 after the first immunization on until the end of the experiment. Mice were killed on day 84 of the experiments via intracardiac punction and blood withdrawal under ketamine/xylazine anaesthesia.
ELISA plates were coated with 100 μl per well of either 1 μg/ml bCII (Chondrex, Inc.) or 1 μg/ml hFib (Millipore/Calbiochem) or 1 μg/ml citrullinated hFib (Cayman) or CCP peptide at a concentration of 10 μg/ml in coating solution for 1 h. The CCP peptide we used for the selected CCP assay had the following sequence: HQCHQEST(cit)GRSRGRCGRSGS (SEQ ID NO: 2), with disulphide bonds spanning C3-C16.
All subsequent procedures were performed at room temperature (RT) and incubations were done on a microtiter plate shaker. […] After washing, the POD was detected by incubation with 100 μl/well of TMB substrate (Thermo Scientific, #34029) until a maximal optical density (OD) of about 1 to 2 was reached. Finally, the colorimetric reaction was stopped with 100 μl/well stopping solution (1M H2SO4) and the OD determined at a wavelength of 450 nm with a reference wavelength of 595 nm with the Tecan Infinite F 200 plate reader.
For assessment of antibodies, various antigens were coated on ELISA plates, and the sera of the mice were added. Binding of antibodies to the antigens was then measured by adding anti-mouse antibodies labelled with POD.

The mark [3] stands for this setting: 1 mg/kg i.v. on days 14, 35 and 56.
Setting [4] is: 1 mg/kg i.v. on days 14, 35 and 56, vs NaCl.

Ends that are not written are not given here.

On to `Cc1cnc(NC(=O)C2=C(O)c3ccccc3S(=O)(=O)N2C)s1` [meloxicam, reference compound], for which the adverse effects result in data set [1] (mouse, in vivo, 1 mg/kg) is recorded as “did not develop any adverse effects”.
In the case of “peptide 90091: non-fructosylated derivative of peptide 90578, amino sequence GEPGIAGFKGEQGPK (SEQ ID No: 1) (CARBOHYD (9)..(9); listed as Bos taurus) [reference compound]”, the “antibody levels (anti-bCII, anti-hFib titers)” value in data set [2] is on record as “not Affected by Treatment”. Moreover, in data set [1] (setting [3]), the “ankle and tarsal joint histology (lymphocyte infiltrates, cartilage, pannus)” value was “less lymphocyte infiltrates, but also pannus formation and cartilage erosion”; the “overview of the paws: soft tissue enhancement and lymphocyte infiltration (HE sections)” value is reported as “severely enhanced”. The “survival probability (Kaplan-Meier, log-rank)” value in data set [1] (1 mg/kg i.v. on days 14, 35 and 56, mice killed when arthritis too severe) is reported as “did not reveal a significant difference between groups”. Further, the arthritis score entry in data set [1] (setting [4]) was “seemed to enhance arthritis, but not significantly”.
Take “peptide 90578: GEPGIAGFKGEQGPK (SEQ ID NO: 1, bCII 256-270) with a D-fructosyl residue on the lysine at position 264 (position 9) (GEPGIAGFK(D‑fructosyl)GEQGPK; listed as Bos taurus)”: the “antibody levels (anti-bCII, anti-hFib titers)” value in data set [2] (1 mg/kg) is on record as “this effect could not be found in the antibody levels”; in data set [2] (listed as Peptide 905778, 1 mg/kg) it was “not Affected by Treatment”. Further, in data set [1] (setting [3]), the “ankle and tarsal joint histology (lymphocyte infiltrates, cartilage, pannus)” value was “the cartilage was intact and there were only a few lymphocyte infiltrates in the subchondral bone”. Moreover, the “paw swelling of tarsal joints” value in data set [1] (1 mg/kg i.v. on days 14, 35 and 56, caliper, vs NaCl) was “significantly lower swelling on days 49 and 56”. In data set [1] (1 mg/kg i.v. on days 14, 35 and 56, right hind paw HE sections at day 84, score max 15, N=8), this compound returned an average histology score of 3.9. The “overview of the paws: soft tissue enhancement and lymphocyte infiltration (HE sections)” value in data set [1] (setting [3]) was “less tissue enhancement and lymphocyte infiltration”. Besides, the arthritis score entry in data set [1] (setting [4]) is listed as “tended to be less severe”.
